The text below walks through data of patent US8304419B2, “Chemical compounds” (priority 2007, dated 2012).

Structures are written as SMILES. Counter-ions that a name gives are not always drawn.

The first assay has as its system HIV wild type (WTRVA). In words: HeLa cell assay, wild type virus (WTRVA). It is filed as cell-based, HIV-1. The arrangement: scale not given here. The conditions noted are these: Human immunodeficiency virus 1, HeLa, HeLa cell assay; read-out: IC50 against WTRVA.
For the compound `CCc1ccc(CNC(=O)c2[nH]c(C)nc2Cl)c(F)c1Oc1cc(Cl)cc(C#N)c1` [Example 249, 4-chloro-N-({3-[(3-chloro-5-cyanophenyl)oxy]-4-ethyl-2-fluorophenyl}methyl)-2-methyl-1H-imidazole-5-carboxamide], the IC50 was less than 10 nM. Still for that read-out and setting: with `N#Cc1cc(Cl)cc(Oc2c(Br)ccc(CNC(=O)c3[nH]cnc3Br)c2F)c1` [Example 377, 4-bromo-N-({4-bromo-3-[(3-chloro-5-cyanophenyl)oxy]-2-fluorophenyl}methyl)-1H-imidazole-5-carboxamide] the figure was less than 10 nM; with `C[C@@H](O)C#Cc1cc(Cl)cc(Oc2c(Cl)ccc(CNC(=O)c3[nH]cnc3Cl)c2F)c1` [Example 319, 4-chloro-N-{[4-chloro-3-({3-chloro-5-[(3R)-3-hydroxy-1-butyn-1-yl]phenyl}oxy)-2-fluorophenyl]methyl}-1H-imidazole-5-carboxamide], less than 10 nM. Consider `C=Cc1cc(C#N)cc(Oc2c(Cl)ccc(CNC(=O)c3[nH]c(C)nc3Cl)c2F)n1` [Example 272, 4-Chloro-N-({4-chloro-3-[(4-cyano-6-ethenyl-2-pyridinyl)oxy]-2-fluorophenyl}methyl)-2-methyl-1H-imidazole-5-carboxamide], for which the IC50 was less than 10 nM. On the same count and under the same terms, with `C=CCc1cc(C#N)cc(Oc2c(Cl)ccc(Cn3cnc4nc[nH]c4c3=O)c2F)c1` [Example 373, 3-({6-chloro-2-fluoro-3-[(6-oxo-6,7-dihydro-1H-purin-1-yl)methyl]phenyl}oxy)-5-(2-propen-1-yl)benzonitrile] the figure was less than 10 nM; with `C#Cc1cc(C#N)cc(Oc2c(Cl)ccc(CNC(=O)c3[nH]cnc3Cl)c2F)c1` [Example 310, 4-chloro-N-({4-chloro-3-[(3-cyano-5-ethynylphenyl)oxy]-2-fluorophenyl}methyl)-1H-imidazole-5-carboxamide], less than 10 nM; with `N#Cc1cc(Cl)cc(Oc2c(C(F)F)ccc(CNC(=O)c3[nH]c(N)nc3Cl)c2F)c1` [Example 253, 2-amino-4-chloro-N-{[3-[(3-chloro-5-cyanophenyl)oxy]-4-(difluoromethyl)-2-fluorophenyl]methyl}-1H-imidazole-5-carboxamide], less than 10 nM. Take `Cc1nc(Cl)c(C(=O)NCc2ccc(Cl)c(Oc3cc(Cl)cc(C#N)c3Cl)c2F)[nH]1` [Example 306, 4-chloro-N-({4-chloro-3-[(2,5-dichloro-3-cyanophenyl)oxy]-2-fluorophenyl}methyl)-2-methyl-1H-imidazole-5-carboxamide trifluoroacetate]: the IC50 is less than 10 nM.

With `CCCc1cc(C#N)cc(Oc2c(Cl)ccc(CNC(=O)c3[nH]cnc3Cl)c2F)c1` [Example 151, 4-chloro-N-({4-chloro-3-[(3-cyano-5-propylphenyl)oxy]-2-fluorophenyl}methyl)-1H-imidazole-5-carboxamide], the IC50 was less than 10 nM. Still for that read-out and setting: with `Cc1cc(C#N)cc(Oc2c(Cl)ccc(CNC(=O)c3[nH]c(C)nc3Br)c2F)c1` [Example 146, 4-bromo-N-({4-chloro-3-[(3-cyano-5-methylphenyl)oxy]-2-fluorophenyl}methyl)-2-methyl-1H-imidazole-5-carboxamide] the figure was less than 10 nM; with `N#Cc1cc(Oc2c(Cl)ccc(CNC(=O)c3[nH]cnc3Br)c2F)cc(C(F)(F)F)c1` [Example 286, 4-bromo-N-[(4-chloro-3-{[3-cyano-5-(trifluoromethyl)phenyl]oxy}-2-fluorophenyl)methyl]-1H-imidazole-5-carboxamide], less than 10 nM; with `COc1cc(C#N)cc(Oc2c(Cl)ccc(CNC(=O)c3[nH]c(N)nc3Cl)c2F)c1` [Example 366, 2-amino-4-chloro-N-[(4-chloro-3-{[3-cyano-5-(methyloxy)phenyl]oxy}-2-fluorophenyl)methyl]-1H-imidazole-5-carboxamide trifluoroacetate], less than 10 nM. On the same count and under the same terms, with `N#Cc1cc(Oc2c(Cl)ccc(CNC(=O)c3[nH]cnc3Cl)c2F)cc(C2CC2)c1` [Example 152, 4-chloro-N-({4-chloro-3-[(3-cyano-5-cyclopropylphenyl)oxy]-2-fluorophenyl}methyl)-1H-imidazole-5-carboxamide] the figure was less than 10 nM; with `N#Cc1cc(Br)cc(Oc2c(Cl)ccc(CNC(=O)c3[nH]cnc3Cl)c2F)c1` [Example 150, N-({3-[(3-bromo-5-cyanophenyl)oxy]-4-chloro-2-fluorophenyl}methyl)-4-chloro-1H-imidazole-5-carboxamide], less than 10 nM; with `N#Cc1cc(Cl)cc(Oc2c(Cl)ccc(Cn3cnc4cc[nH]c4c3=O)c2F)c1` [Example 369, 3-chloro-5-({6-chloro-2-fluoro-3-[(4-oxo-4,5-dihydro-3H-pyrrolo[3,2-d]pyrimidin-3-yl)methyl]phenyl}oxy)benzonitrile], less than 10 nM.

Staying with this assay, now noted: Human immunodeficiency virus 1, HeLa, HeLa-CD4-LTR-β-gal cells, wild type virus; read-out: WTRVA activity level.
`CSc1nc(C(=O)NCc2ccc(Cl)c(Oc3cc(Cl)cc(C#N)c3)c2F)cn1C(c1ccccc1)(c1ccccc1)c1ccccc1` [Example 65, N-({4-chloro-3-[(3-chloro-5-cyanophenyl)oxy]-2-fluorophenyl}methyl)-2-(methylthio)-1-(triphenylmethyl)-1H-imidazole-4-carboxamide trifluoroacetate]: the IC50 lay within 10 to 1000 nM.

Take `CS(=O)(=O)c1ccc(C(=O)NCc2ccc(Cl)c(Oc3cc(Cl)cc(C#N)c3)c2)c(Cl)c1` [Example 8, 2-chloro-N-({4-chloro-3-[(3-chloro-5-cyanophenyl)oxy]phenyl}methyl)-4-(methylsulfonyl)benzamide]: the IC50 lay in the range of 10 to 1000 nM. The same measure, in the same setting: then `N#Cc1cc(Cl)cc(Oc2c(Cl)ccc(CNC(=O)c3cc4cc(NC(=O)CCN)ccc4[nH]3)c2F)c1` [Example 116, 5-(β-alanylamino)-N-({4-chloro-3-[(3-chloro-5-cyanophenyl)oxy]-2-fluorophenyl}methyl)-1H-indole-2-carboxamide], with less than 10 nM; and `N#Cc1cc(Cl)cc(Oc2cc(CNC(=O)c3ccc(Cl)c(S(N)(=O)=O)c3)ccc2Cl)c1` [Example 5, 3-(aminosulfonyl)-4-chloro-N-({4-chloro-3-[(3-chloro-5-cyanophenyl)oxy]phenyl}methyl)benzamide trifluoroacetate], with 10 to 1000 nM. The same measure, in the same setting: then `N#Cc1cc(Cl)cc(Oc2c(Cl)ccc(CNC(=O)c3ncc[nH]3)c2F)c1` [Example 59, N-({4-chloro-3-[(3-chloro-5-cyanophenyl)oxy]-2-fluorophenyl}methyl)-1H-imidazole-2-carboxamide trifluoroacetate], with less than 10 nM; and `CC(C)(C)OC(=O)Nc1cccc2cc(C(=O)NCc3ccc(Cl)c(Oc4cc(Cl)cc(C#N)c4)c3F)[nH]c12` [Example 112, 1,1-dimethylethyl (2-{[({4-chloro-3-[(3-chloro-5-cyanophenyl)oxy]-2-fluorophenyl}methyl)amino]carbonyl}-1H-indol-7-yl)carbamate], with 10 to 1000 nM.

For `N#Cc1cc(Cl)cc(Oc2c(Cl)ccc(CNC(=O)c3cc4cc(Cl)ccc4[nH]3)c2F)c1` [Example 109, 5-chloro-N-({4-chloro-3-[(3-chloro-5-cyanophenyl)oxy]-2-fluorophenyl}methyl)-1H-indole-2-carboxamide], the IC50 lay within 10 to 1000 nM. Still for that read-out and setting: with `Cc1c(C(=O)NCc2ccc(Cl)c(Oc3cc(Cl)cc(C#N)c3)c2F)[nH]c2ccc(Cl)cc12` [Example 40, 5-chloro-N-({4-chloro-3-[(3-chloro-5-cyanophenyl)oxy]-2-fluorophenyl}methyl)-3-methyl-1H-indole-2-carboxamide] the figure was 10 to 1000 nM; with `Cc1nc(Br)c(C(=O)NCc2ccc(Cl)c(Oc3cc(Cl)cc(C#N)c3)c2F)[nH]1` [Example 134, 4-bromo-N-({4-chloro-3-[(3-chloro-5-cyanophenyl)oxy]-2-fluorophenyl}methyl)-2-methyl-1H-imidazole-5-carboxamide], less than 10 nM. As to `N#Cc1cc(Cl)cc(Oc2c(Cl)ccc(CNC(=O)c3ccc(S(N)(=O)=O)cc3Cl)c2F)c1` [Example 14, 4-(aminosulfonyl)-2-chloro-N-({4-chloro-3-[(3-chloro-5-cyanophenyl)oxy]-2-fluorophenyl}methyl)benzamide], the IC50 was 10 to 1000 nM.

Regarding `Cc1[nH]c(C(=O)NCc2ccc(Cl)c(Oc3cc(Cl)cc(C#N)c3)c2F)c(C)c1C#N` [Example 71, N-({4-chloro-3-[(3-chloro-5-cyanophenyl)oxy]-2-fluorophenyl}methyl)-4-cyano-3,5-dimethyl-1H-pyrrole-2-carboxamide trifluoroacetate], the IC50 was less than 10 nM.

For the compound `CN(C)CCCOc1ccc2[nH]c(C(=O)NCc3ccc(Cl)c(Oc4cc(Cl)cc(C#N)c4)c3F)cc2c1` [Example 102, N-({4-chloro-3-[(3-chloro-5-cyanophenyl)oxy]-2-fluorophenyl}methyl)-5-{[3-(dimethylamino)propyl]oxy}-1H-indole-2-carboxamide], the IC50 is less than 10 nM. On the same count and under the same terms, with `CN1CCCC1CCOc1ccc2[nH]c(C(=O)NCc3ccc(Cl)c(Oc4cc(Cl)cc(C#N)c4)c3F)cc2c1` (stereo not shown) [Example 104, N-({4-chloro-3-[(3-chloro-5-cyanophenyl)oxy]-2-fluorophenyl}methyl)-5-{[2-(1-methyl-2-pyrrolidinyl)ethyl]oxy}-1H-indole-2-carboxamide] the figure was less than 10 nM; with `CS(=O)(=O)c1cc(F)cc2cc(C(=O)NCc3ccc(Cl)c(Oc4cc(Cl)cc(C#N)c4)c3F)[nH]c12` [Example 33, N-({4-chloro-3-[(3-chloro-5-cyanophenyl)oxy]-2-fluorophenyl}methyl)-5-fluoro-7-(methylsulfonyl)-1H-indole-2-carboxamide], 10 to 1000 nM. Still for that read-out and setting: with `N#Cc1cc(Cl)cc(Oc2c(Cl)ccc(CNC(=O)c3cc4c5c(ccc4[nH]3)N(C(N)=O)CC5)c2F)c1` [Example 44, N^2-({4-chloro-3-[(3-chloro-5-cyanophenyl)oxy]-2-fluorophenyl}methyl)-7,8-dihydropyrrolo[3,2-e]indole-2,6(3H)-dicarboxamide] the figure was less than 10 nM; with `CS(=O)(=O)c1ccc(C(=O)NCc2ccc(Cl)c(Oc3cc(Cl)cc(C#N)c3)c2F)cc1` [Example 92, N-({4-chloro-3-[(3-chloro-5-cyanophenyl)oxy]-2-fluorophenyl}methyl)-4-(methylsulfonyl)benzamide], 10 to 1000 nM.
